Assay results published in patent US20150246093A1, “ORAL FORMULATIONS OF ANGIOTENSIN” (TARIX PHARMACEUTICALS LTD., priority 2012, published 2015).
Several values for one entry are separate records, joined by “and”; a condition that tells them apart may be missing. Identical values can stand only once. Like-named read-outs stand apart in the source and are kept apart here.

Assay: Pharmacokinetics after subcutaneous (SC) administration of angiotensin (1-7) in PBS, plasma LC-MS
Assay type: in vivo, female Sprague-Dawley rats
Details: for AUC(0-t): read-out: AUC0-90 (converted)
Experimental: Initially, a baseline pharmacokinetic profile in female Sprague-Dawley rats was obtained by subcutaneous (SC) administration of angiotensin (1-7) in phosphate buffered saline (PBS). […]
After extraction, the samples were then transferred to ice-cold tubes containing a protease inhibitor cocktail. The samples were kept on ice until they were centrifuged at 4° C. to obtain plasma. The plasma supernatants were then frozen −70° C. until analysis using an LC-MS assay.
Table 1 summarized exemplary individual baseline A(1-7) levels achieved at the designated time points and the non-compartmental PK values. Three rats were administered 0.3 mL of 10 mg/mL A(1-7) as a subcutaneous injection. The pharmacokinetics of A(1-7) were determined using a non-compartmental model, where individual pharmacokinetics were determined. The mean concentration for each time point was calculated and the PK values for these mean values were estimated. The Tmax was achieved approximately 10 to 90 minutes after administration. Half-lives are approximately 15 minutes for this treatment group. Total mean A(1-7) exposure over the observation period was 614 ng*min/mL with a range of 585 to 656 ng*min/mL.

[1] = SC 0.3 mL of 10 mg/mL A(1-7) in PBS, individual rats

**Q.** Which “Total mean A(1-7) exposure over the observation period” value (0.3 mL of 10 mg/mL A(1-7) subcutaneous injection, three rats) does the source give for `CC[C@H](C)[C@H](NC(=O)[C@H](Cc1ccc(O)cc1)NC(=O)[C@@H](NC(=O)[C@H](CCCNC(=N)N)NC(=O)[C@@H](N)CC(=O)O)C(C)C)C(=O)N[C@@H](Cc1c[nH]cn1)C(=O)N1CCC[C@H]1C(=O)O` [Angiotensin (1-7), Asp^1-Arg^2-Val^3-Tyr^4-Ile^5-His^6-Pro^7] here?
**A.** 614 ng·min/mL

**Q.** And the AUC0-90 [1]?
**A.** 598.1 ng·min/mL and 656.1 ng·min/mL

**Q.** What about the Cmax [1] of the same compound?
**A.** 15.7 ng/mL and 17.4 ng/mL

**Q.** What about the Half-Life [1] of the same compound?
**A.** 15.58 min

**Q.** What about the “Angiotensin (1-7) concentration” value (SC 0.3 mL of 10 mg/mL A(1-7) in PBS, time point 0 min (before injection), individual rats) of the same compound?
**A.** 0.121 ng/mL and 10.2 ng/mL and 1.41 ng/mL

**Q.** And the “Angiotensin (1-7) concentration” value (SC 0.3 mL of 10 mg/mL A(1-7) in PBS, time point 5 min, individual rats)?
**A.** 0.120 ng/mL and 7.47 ng/mL and 4.37 ng/mL

**Q.** What about the “Angiotensin (1-7) concentration” value (SC 0.3 mL of 10 mg/mL A(1-7) in PBS, time point 10 min, individual rats) of the same compound?
**A.** 18.6 ng/mL and 0.94 ng/mL and 1.09 ng/mL

**Q.** What about the “Angiotensin (1-7) concentration” value (SC 0.3 mL of 10 mg/mL A(1-7) in PBS, time point 20 min, individual rats) of the same compound?
**A.** 6.25 ng/mL and 15.7 ng/mL and 5.71 ng/mL

**Q.** What about the “Angiotensin (1-7) concentration” value (SC 0.3 mL of 10 mg/mL A(1-7) in PBS, time point 40 min, individual rats) of the same compound?
**A.** 15.30 ng/mL and 6.38 ng/mL and 4.47 ng/mL

**Q.** What about the “Angiotensin (1-7) concentration” value (SC 0.3 mL of 10 mg/mL A(1-7) in PBS, time point 60 min, individual rats) of the same compound?
**A.** 1.03 ng/mL and 2.65 ng/mL and 7.46 ng/mL

**Q.** And the “Angiotensin (1-7) concentration” value (SC 0.3 mL of 10 mg/mL A(1-7) in PBS, time point 90 min, individual rats)?
**A.** 1.14 ng/mL and 6.59 ng/mL and 17.4 ng/mL

**Q.** What about the level at 0 h (female, Sprague-Dawley, rat, plasma, 3 mg, SC 0.3 mL of 10 mg/mL A(1-7) in PBS, time point 0 min (before injection), Average, read-out: Angiotensin (1-7) concentration) of the same compound?
**A.** 4.5 ng/mL

**Q.** What about the level at 5 min (female, Sprague-Dawley, rat, plasma, 3 mg, SC 0.3 mL of 10 mg/mL A(1-7) in PBS, time point 5 min, Average, read-out: Angiotensin (1-7) concentration) of the same compound?
**A.** 3.99 ng/mL

**Q.** And the level at 10 min (female, Sprague-Dawley, rat, plasma, 3 mg, SC 0.3 mL of 10 mg/mL A(1-7) in PBS, time point 10 min, Average, read-out: Angiotensin (1-7) concentration)?
**A.** 6.88 ng/mL

**Q.** And the level at 20 min (female, Sprague-Dawley, rat, plasma, 3 mg, SC 0.3 mL of 10 mg/mL A(1-7) in PBS, time point 20 min, Average, read-out: Angiotensin (1-7) concentration)?
**A.** 9.22 ng/mL

**Q.** What about the level at 40 min (female, Sprague-Dawley, rat, plasma, 3 mg, SC 0.3 mL of 10 mg/mL A(1-7) in PBS, time point 40 min, Average, read-out: Angiotensin (1-7) concentration) of the same compound?
**A.** 8.72 ng/mL

**Q.** And the level at 1 h (female, Sprague-Dawley, rat, plasma, 3 mg, SC 0.3 mL of 10 mg/mL A(1-7) in PBS, time point 60 min, Average, read-out: Angiotensin (1-7) concentration)?
**A.** 3.71 ng/mL

**Q.** And the level at 1.5 h (female, Sprague-Dawley, rat, plasma, 3 mg, SC 0.3 mL of 10 mg/mL A(1-7) in PBS, time point 90 min, Average, read-out: Angiotensin (1-7) concentration)?
**A.** 8.38 ng/mL

**Q.** And the Tmax (female, Sprague-Dawley, rat, plasma, sc, 3 mg, 0.3 mL of 10 mg/mL A(1-7) subcutaneous injection, three rats, range over the group, read-out: Tmax after administration)?
**A.** 10 to 90 min

**Q.** And the Half-Life (female, Sprague-Dawley, rat, plasma, sc, 3 mg, 0.3 mL of 10 mg/mL A(1-7) subcutaneous injection, three rats, read-out: Half-lives)?
**A.** ~15 min

**Q.** And the AUC(0-t) (female, Sprague-Dawley, rat, plasma, sc, 3 mg, SC 0.3 mL of 10 mg/mL A(1-7) in PBS, Average (PK value of the mean concentrations))?
**A.** 10.2 ng·h/mL

**Q.** What about the Cmax (female, Sprague-Dawley, rat, plasma, sc, 3 mg, SC 0.3 mL of 10 mg/mL A(1-7) in PBS, Average (PK value of the mean concentrations), read-out: Cmax) of the same compound?
**A.** 9.2 ng/mL

**Q.** And the Tmax (female, Sprague-Dawley, rat, plasma, sc, 3 mg, SC 0.3 mL of 10 mg/mL A(1-7) in PBS, Average (PK value of the mean concentrations), read-out: Tmax (converted))?
**A.** 20 min

**Q.** And the AUC(0-t) (female, Sprague-Dawley, rat, plasma, sc, 3 mg, SC 0.3 mL of 10 mg/mL A(1-7) in PBS, Mean PK Value (average of individual PK parameters))?
**A.** 10.2 ng·h/mL

**Q.** And the Cmax (female, Sprague-Dawley, rat, plasma, sc, 3 mg, SC 0.3 mL of 10 mg/mL A(1-7) in PBS, Mean PK Value (average of individual PK parameters), read-out: Cmax)?
**A.** 17.2 ng/mL

**Q.** And the Half-Life (female, Sprague-Dawley, rat, plasma, sc, 3 mg, SC 0.3 mL of 10 mg/mL A(1-7) in PBS, Mean PK Value (average of individual PK parameters), read-out: Half-Life)?
**A.** 15.1 min

**Q.** What about the Tmax (female, Sprague-Dawley, rat, plasma, sc, 3 mg, SC 0.3 mL of 10 mg/mL A(1-7) in PBS, Mean PK Value (average of individual PK parameters), read-out: Tmax (converted)) of the same compound?
**A.** 40 min

**Q.** What about the AUC(0-t) (female, Sprague-Dawley, rat, plasma, sc, 3 mg, SC 0.3 mL of 10 mg/mL A(1-7) in PBS, individual rats) of the same compound?
**A.** 9.72 ng·h/mL

**Q.** What about the Cmax (female, Sprague-Dawley, rat, plasma, sc, 3 mg, SC 0.3 mL of 10 mg/mL A(1-7) in PBS, individual rats, read-out: Cmax) of the same compound?
**A.** 18.6 ng/mL

**Q.** And the Half-Life (female, Sprague-Dawley, rat, plasma, sc, 3 mg, SC 0.3 mL of 10 mg/mL A(1-7) in PBS, individual rats, read-out: Half-Life)?
**A.** 15 min
